Reference: patent publication US20200331882A1, “COMPOUND FOR SIMULTANEOUSLY INHIBITING LSD1 AND HDAC TARGETS AND APPLICATION THEREOF” (PEKING UNIVERSITY SHENZHEN GRADUATE SCHOOL, priority 2018, published 2020)

What was measured:
HDAC1 = target: T1, HDAC1 (Homo sapiens, UniProt Q13547); experiment: In vitro HDAC1 inhibitory activity, FLUOR DE LYS HDAC1 fluorometric assay kit; format: biochemical; settings: HDAC1 enzyme activity in vitro
T1 construct: purchased Enzo Biochem Inc
From the text: The principle was shown in the following reaction formula: HDAC1 catalyzes the deacetylation of a substrate FLUOR DE LYS® Substrate (containing an acetylated side chain), the product can react with FLUOR DE LYS® Developer II to generate fluorescence (shown in the following reaction process), and the inhibitory activity of a molecule to be detected on HDAC1 can be indirectly obtained by detecting the fluorescence intensity of the product. In this experiment, 360 nm was selected as the excitation wavelength and 460 nm as the emission wavelength for detection. FLUOR DE LYS® HDAC1 fluorometric drug discovery assay kit required for experiments was purchased from Enzo Biochem Inc.
During the test, the sample was prepared according to the specific experimental conditions of blocking the HDAC1 enzyme activity of the compound of the present invention in vitro in accordance with Table 2 below.

[1] = system: mouse breast cancer cell 4T1; experiment: MTT tumor cell proliferation; format: cell-based; settings: Mus musculus, 72 h
From the text: (§1) MTT colorimetric method was used to detect the inhibitory activity of a series of compounds (i.e. ZZY-001 to ZZY-016, a total of 16 kinds) of the embodiment of the present invention on the proliferation of tumor cells in vitro. The full name of MTT is 3-(4,5-dimethyl-2-thiazolyl)-2,5-diphenyl-2-H-tetrazolium romide, which is a yellow dye also known as thiazolyl blue. […] DMSO can dissolve Formazan deposited in cells and the absorbance value can be measured with a enzyme marker at a wavelength of 490 nm. In a certain range of cell number, the production of Formazan is proportional to the number of cells, so the number of living cells can be inferred according to the measured OD value.
(§2) The cell suspension was inoculated on a 96-well plate at 100 μl/well and cultured in a constant temperature CO2 incubator for 24 h. Then the tested drugs were added, 100 μl/well, and cultured for 72 h. MTT was added to a 96-well plate, 20 μl/well, and reacted for 4 h in the incubator. Absorb the supernatant, add DMSO, 150 μl/well and shake for 10 min on the plate shaker. The optical density (OD value) of each well was measured by enzyme marker at the wavelength of 490 nm.

[2] = system: mouse colon cancer cell CT26.WT; experiment: MTT tumor cell proliferation; format: cell-based; settings: Mus musculus, 72 h
From the text: as §1, §2

[3] = system: human colon adenocarcinoma cell HCT116; experiment: MTT tumor cell proliferation; format: cell-based; settings: Homo sapiens, HCT-116, 72 h
From the text: as §1, §2

[4] = system: human breast cancer cell line MDA-MB-231; experiment: MTT tumor cell proliferation; format: cell-based; settings: Homo sapiens, 72 h
From the text: as §1
In the experiments of this embodiment, the selected cell lines are human breast cancer cell line MDA-MB-231 and BT-474, human colon adenocarcinoma cell HCT116, mouse colon cancer cell CT26.WT, mouse breast cancer cell 4T1. During the test, the cells in logarithmic phase and in good condition were digested with 0.25% trypsin digestion solution to make the adherent cells fall off, and the cell suspension (suspension cells without trypsin digestion) was made by counting 2-4×10^4 cells/ml. The cell suspension was inoculated on a 96-well plate at 100 μl/well and cultured in a constant temperature CO2 incubator for 24 h. Then the tested drugs were added, 100 μl/well, and cultured for 72 h. MTT was added to a 96-well plate, 20 μl/well, and reacted for 4 h in the incubator. Absorb the supernatant, add DMSO, 150 μl/well and shake for 10 min on the plate shaker. The optical density (OD value) of each well was measured by enzyme marker at the wavelength of 490 nm. […]

[5] = target: T2, recombinant human LSD1 protein (Homo sapiens, UniProt O60341); experiment: In vitro LSD1 inhibitory activity, LSD1-HRP coupling reaction (Amplex Red); format: biochemical; settings: LSD1 enzyme activity in vitro; 30 min preincubation; H3K4Me2 peptide
T2 construct: made in house; host or cells: E. coli
From the text: LSD1 activity was detected by using LSD1-HRP coupling reaction. […] During the reduction of H2O2 to H2O, Amplex Red acts as an electron donor and oxidizes to Resorufin for detection of fluorescence. […] Ampliflu™ Red, peroxidase, from horseradish required for the experiment was purchased from SIGMA; H3K4Me2 substrate peptide was purchased from GL Biochemical (Shanghai) Co., Ltd.

T1 sequence (Q13547 whole entry): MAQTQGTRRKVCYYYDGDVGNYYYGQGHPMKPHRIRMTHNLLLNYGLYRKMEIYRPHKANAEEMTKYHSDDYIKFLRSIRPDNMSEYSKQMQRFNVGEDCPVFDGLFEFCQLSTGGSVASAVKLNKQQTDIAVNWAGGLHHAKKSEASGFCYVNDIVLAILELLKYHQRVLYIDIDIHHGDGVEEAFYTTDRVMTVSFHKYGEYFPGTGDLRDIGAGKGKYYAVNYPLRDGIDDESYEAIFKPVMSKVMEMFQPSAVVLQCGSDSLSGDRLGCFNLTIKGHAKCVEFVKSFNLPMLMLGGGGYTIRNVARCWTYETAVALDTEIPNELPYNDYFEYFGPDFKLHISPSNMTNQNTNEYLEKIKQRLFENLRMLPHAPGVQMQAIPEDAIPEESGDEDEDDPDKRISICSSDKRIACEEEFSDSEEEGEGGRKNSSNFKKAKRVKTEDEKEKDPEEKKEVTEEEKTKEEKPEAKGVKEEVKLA

- IC50 (HDAC1): 180 nM
- IC50 [1]: 2380 nM
- IC50 [2]: 8760 nM
- IC50 [3]: 265 nM
- IC50 [4]: 836 nM
- IC50 [5]: 440 nM
Structure (SMILES): Cc1ccc(C(=O)Nc2cc(N3CCNCC3)ccc2-c2ccc(/C=C/C(=O)NO)cc2C)cc1.Cl [ZZY-003]
